Laboratory results taken from patent US12031897B2, “Target-locking single-molecule nanoscopy” (Memorial Sloan Kettering Cancer Center, priority 2019, dated 2024).

Columns and labels:
[1] = test system: Pol II (SiR-Rpb1) at the CMV mini-gene transcription site; assay: SiR-Rpb1 (Pol II) dynamics at the CMV mini-gene after inhibitor addition (target-locking); assay type: cell-based, human; conditions: for SiR-Rpb1 exponential decay time (ii) individual target-locked transcription site traces: 10 μM flavopiridol or 10 μM triptolide, mean±S.D.; for SiR-Rpb1 exponential decay time (i) fit parameters of total signal from different transcription sites: after adding 10 μM flavopiridol or 10 μM triptolide, target-locking
Experimental: To visualize Pol II, example implementations may express a SNAP-tagged Rpb1 Pol II subunit (SNAP-Rpb1). […] Importantly, the brightness and gradual SiR-Rpb1 photobleaching within these foci (see below) indicates multiple Pol II molecules accumulating at the mini-gene. Previously, it was unclear to what extent transcription is carried out by individual, solitary Pol II molecules, or whether it involves multiple Pol II molecules. When Pol II clustering occurs, as typically little information on genomic position and promoter activity is simultaneously available, it has been hard to establish whether and how this phenomenon relates to transcription. Our observations reveal that focal Pol II accumulation and transcription activity from a specific promoter at a specific genomic locus are spatially and temporally linked.
Regarding target-locking probes nanometer Pol II organization at the transcription site, motion blur and bleaching during scanning distorts the 3D images, limits the observation times and makes quantifying and tracking Pol II at the transcription site, with single-molecule sensitivity and higher spatio-temporal resolution, extremely difficult (FIGS. 11D, 11E). To eliminate scanning, example implementations may develop a target-locking system that obtains single-shot spatial information (FIG. 10A) and actively stabilizes the transcription site at the (common) excitation maximum/STED zero. With feedback loop speeds up to 30 fps, tdPCP-EGFP is locked within ˜30 nm root-mean-square (r.m.s.) from the desired set-point (FIGS. 4E, 4F, 11F). Target-locking at the excitation maximum provides the same total photon counts as scanning, but at orders-of-magnitude lower power, improving photostability. […]
Pol II closely follows the fate of nascent transcripts: SiR-Rpb1 accumulation gradually decreases after inhibitor addition (FIGS. 3B, 3C and 13H decay times 160-240 sec). […] The good agreement with decay rates measured optically further supports the notion that the accumulated SiR-Rpb1 signal reflects multiple elongating/terminating Pol IIs.
For active feedback control, example implementations may adopt a custom LabVIEW program, optimized for fast CCD acquisition (via, e.g., detection system 150), real-time image analysis and active microscope stabilization using nanopositioning equipment (e.g., platform 190). The images obtained from the Ixon3 897 detector (e.g., detection system 150) were analyzed on the fly by non-linear least-squares fitting of a 21×21 pixel ROI to a 2D Gaussian peak function implemented in LabVIEW. […] The coordinates returned by the 2D Gaussian peak fit were passed onto a PID controller that calculated the desired position correction that was commanded to the nanopositioning stage controller. […]

[2] = test system: Pol II (FLAG-SNAP-Rpb1) at the CMV mini-gene; assay: ChIP-qPCR of Pol II at the CMV mini-gene after flavopiridol treatment (U2-OS cells); assay type: cell-based, human; conditions: 10 μM flavopiridol, by the 5-minute time point; clone 5 cells
Experimental: ChIP-qPCR analysis of Pol II after flavopiridol treatment. U2-OS cells. Fast chromatin immuno-precipitation was performed as described. Confluent 15 cm dishes (20×10^6 cells) were treated with 10 μM Flavopiridol or DMSO for the indicated times. Methanol-free formaldehyde (Thermo Fisher) was then directly added to the media to 1% v/v final concentration, and dishes were immediately placed on a rotator/shaker for 10 minutes at RT. Formaldehyde was quenched with 125 mM glycine for 5 min at RT, and cells were scraped and collected with centrifugation (2,000 g, 5 min at 4° C.) and washed twice with cold PBS. Cells were lysed in buffer IP (150 mM NaCl, 50 mM Tris-HCl pH 7.5, 5 mM EDTA, 0.5% v/v NP-40, 1.0% v/v Triton X-100) containing protease inhibitors, centrifuged (12,000 g, 1 min at 4° C.), and after one wash, the pellet was resuspended in buffer IP+protesase inhibitors. Volume equivalent to 4×10^6 cells was sonicated to shear the chromatin (Bioruptor indirect sonicator), and cleared using centrifugation (12,000 g, 10 min at 4° C.). […] Eluted chromatin was analyzed with qPCR, using primer pairs specific for different mini-gene regions (FIGS. 13I, 13J).

SMILES	SiR-Rpb1 exponential decay time (ii) individual target-locked transcription site traces [1] [s]	SiR-Rpb1 exponential decay time (i) fit parameters of total signal from different transcription sites [1] [s]	Pol II ChIP signal at mini-gene body and terminator regions [2]
CN1CC[C@H](c2c(O)cc(O)c3c(=O)cc(-c4ccccc4Cl)oc23)[C@H](O)C1 [flavopiridol]	162 ± 71	238 ± 49	near-complete loss
CC(C)[C@]12O[C@H]1[C@@H]1O[C@]13[C@]1(O[C@H]1C[C@H]1C4=C(CC[C@@]13C)C(=O)OC4)[C@@H]2O [triptolide]	242 ± 148	239 ± 24	–
